According to ChEMBL document CHEMBL4330060, “Design and development of some phenyl benzoxazole derivatives as a potent acetylcholinesterase inhibitor with antioxidant property to enhance learning and memory” (Eur J Med Chem, 2019):
Activity calls are given as the source filed them. No cut-off for these calls is given here.

Legend:
[1] = Antioxidant activity assessed as DPPH radical scavenging activity at 10 uM after 30 mins under dark condition relative to control; type: functional
Acetylcholinesterase [2] = target: T1, Acetylcholinesterase (Electrophorus electricus, UniProt O42275); assay: Inhibition of Electric eel AChE using acetylthiocholine iodide as substrate after 10 mins measured for every mins by Ellman's method
T1 sequence (O42275 whole entry): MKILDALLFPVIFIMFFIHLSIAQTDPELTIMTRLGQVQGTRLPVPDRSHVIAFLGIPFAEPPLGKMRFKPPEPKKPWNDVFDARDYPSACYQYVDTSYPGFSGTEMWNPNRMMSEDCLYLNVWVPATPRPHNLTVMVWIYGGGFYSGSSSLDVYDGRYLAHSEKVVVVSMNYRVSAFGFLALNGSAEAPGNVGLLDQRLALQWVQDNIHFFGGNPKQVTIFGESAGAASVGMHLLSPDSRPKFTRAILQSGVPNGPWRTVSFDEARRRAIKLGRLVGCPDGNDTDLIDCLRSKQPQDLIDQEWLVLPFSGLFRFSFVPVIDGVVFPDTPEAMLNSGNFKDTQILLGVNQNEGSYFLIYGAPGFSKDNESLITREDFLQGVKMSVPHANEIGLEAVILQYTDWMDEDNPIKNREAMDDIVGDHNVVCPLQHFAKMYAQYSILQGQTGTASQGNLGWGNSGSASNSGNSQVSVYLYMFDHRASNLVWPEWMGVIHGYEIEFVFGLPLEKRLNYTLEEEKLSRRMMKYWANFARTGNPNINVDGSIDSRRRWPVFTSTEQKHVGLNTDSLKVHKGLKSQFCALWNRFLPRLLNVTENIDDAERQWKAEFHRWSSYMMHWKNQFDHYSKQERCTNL

Mus musculus [3] = assay: Memory enhancing effect in Swiss albino mouse assessed as reversal of scopolamine-induced reduction in latency time at 5 mg/kg, ip qd pretreated for 1 hr followed by scopolamine addition by passive avoidance test; type: functional, organism-based
Cholinesterase = Cholinesterase (Homo sapiens, UniProt P06276); assay: Inhibition of human serum BChE using butyrylthiocholine iodide as substrate after 10 mins measured for every mins by Ellman's method
Chain of Cholinesterase (P06276 whole entry): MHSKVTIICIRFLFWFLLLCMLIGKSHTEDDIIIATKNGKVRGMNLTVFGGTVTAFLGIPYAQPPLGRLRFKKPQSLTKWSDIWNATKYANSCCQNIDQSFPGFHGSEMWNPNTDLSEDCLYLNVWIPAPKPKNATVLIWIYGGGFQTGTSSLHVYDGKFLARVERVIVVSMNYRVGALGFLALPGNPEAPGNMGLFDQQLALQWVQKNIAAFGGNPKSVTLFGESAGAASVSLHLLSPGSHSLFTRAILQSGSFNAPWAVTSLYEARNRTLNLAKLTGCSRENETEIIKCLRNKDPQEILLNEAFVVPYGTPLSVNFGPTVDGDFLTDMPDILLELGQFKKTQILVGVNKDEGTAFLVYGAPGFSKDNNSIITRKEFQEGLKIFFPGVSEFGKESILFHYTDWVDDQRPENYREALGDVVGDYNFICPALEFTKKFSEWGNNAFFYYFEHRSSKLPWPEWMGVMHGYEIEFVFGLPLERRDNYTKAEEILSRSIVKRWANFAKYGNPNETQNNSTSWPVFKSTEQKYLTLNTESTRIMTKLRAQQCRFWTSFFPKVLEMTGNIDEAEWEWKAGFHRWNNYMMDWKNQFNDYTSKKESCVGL

in vitro = settings: PAMPA, pH 7.4
Description: Effective permeability of the compound at pH 7.4 after 18 hrs by PAMPA-BBB assay

[4] = Effective permeability of the compound by PAMPA; type: ADME; settings: read-out: Peff
[5] = Neurotoxicity in Swiss albino mouse assessed as motor coordination by measuring fall off time at 5 mg/kg, po after 1 hr by rota rod test (reference value: 310.61 +/- 26.64 sec); type: toxicity, organism-based; settings: in vivo
Mus musculus [6] = assay: Memory enhancing effect in Swiss albino mouse assessed as reversal of scopolamine-induced reduction in latency time at 1 mg/kg, ip qd pretreated for 1 hr followed by scopolamine addition by passive avoidance test; type: functional, organism-based
Mus musculus [7] = assay: Cognitive enhancing effect in Swiss albino mouse assessed as reversal of scopolamine-induced reduction in spontaneous alteration score at 1 mg/kg, ip qd pretreated for 1 hr followed by scopolamine addition by Y-maze test; type: functional, organism-based
[8] = Selectivity index, ratio of IC50 for human serum BChE to IC50 for Electric eel AChE
Mus musculus [9] = assay: In vivo antioxidant activity in Swiss albino mouse brain assessed as increase in SOD level at 5 mg/kg, ip qd pretreated for 1 hr followed by scopolamine addition measured every 30 secs interval for 2 mins; type: functional, organism-based
[10] = Acute toxicity in Swiss albino mouse assessed as abnormal behavior at 100 mg/kg, po measured at 14 days post administration; type: organism-based; settings: in vivo, 336 h
Mus musculus [11] = assay: In vivo antioxidant activity in Swiss albino mouse brain assessed as decrease in MDA level at 5 mg/kg, ip qd pretreated for 1 hr followed by scopolamine addition by TBARS assay; type: functional, organism-based
Acetylcholinesterase [12] = target: T1, Acetylcholinesterase; assay: Inhibition of Electric eel AChE using acetylthiocholine iodide as substrate after 10 mins measured for every mins by Lineweaver-Burk plot analysis
Mus musculus [13] = assay: In vivo antioxidant activity in Swiss albino mouse brain assessed as increase in catalase activity by measuring decrease in H2O2 level at 5 mg/kg, ip qd pretreated for 1 hr followed by scopolamine addition; type: functional, organism-based
Mus musculus [14] = assay: Cognitive enhancing effect in Swiss albino mouse assessed as reversal of scopolamine-induced anxiety by measuring increase in number of novel arm entries at 1 to 20 mg/kg, ip qd pretreated for 1 hr followed by scopolamine addition by Y-maze test; type: functional, organism-based
[15] = Acute toxicity in Swiss albino mouse up to 100 mg/kg, po measured until 14 days; type: organism-based; settings: in vivo, 336 h
Mus musculus [16] = assay: Cognitive enhancing effect in Swiss albino mouse assessed as reversal of scopolamine-induced cainophobia behavior by measuring increase in number of novel arm entries at 1 to 20 mg/kg, ip qd pretreated for 1 hr followed by scopolamine addition by Y-maze test; type: functional, organism-based
[17] = Acute toxicity in Swiss albino mouse assessed as mortality at 100 mg/kg, po measured at 14 days post administration; type: organism-based; settings: in vivo, 336 h
Mus musculus [18] = assay: In vivo antioxidant activity in Swiss albino mouse brain assessed as decrease in nitric oxide level at 5 mg/kg, ip qd pretreated for 1 hr followed by scopolamine addition by Griess reagent based assay; type: functional, organism-based
Mus musculus [19] = assay: Ex vivo inhibition of AChE in Swiss albino mouse brain at 5 mg/kg, ip qd pretreated for 1 hr followed by scopolamine addition using acetylthiocholine iodide as substrate by Ellman's method; type: functional, organism-based
[20] = target: Acetylcholinesterase (Homo sapiens) (UniProt P22303); assay: Displacement of Propidium iodide from PAS region of AChE (unknown origin) after 20 hrs by fluorescence assay relative to control; settings: concentration not given here
Chain of Acetylcholinesterase (Homo sapiens) (P22303 whole entry): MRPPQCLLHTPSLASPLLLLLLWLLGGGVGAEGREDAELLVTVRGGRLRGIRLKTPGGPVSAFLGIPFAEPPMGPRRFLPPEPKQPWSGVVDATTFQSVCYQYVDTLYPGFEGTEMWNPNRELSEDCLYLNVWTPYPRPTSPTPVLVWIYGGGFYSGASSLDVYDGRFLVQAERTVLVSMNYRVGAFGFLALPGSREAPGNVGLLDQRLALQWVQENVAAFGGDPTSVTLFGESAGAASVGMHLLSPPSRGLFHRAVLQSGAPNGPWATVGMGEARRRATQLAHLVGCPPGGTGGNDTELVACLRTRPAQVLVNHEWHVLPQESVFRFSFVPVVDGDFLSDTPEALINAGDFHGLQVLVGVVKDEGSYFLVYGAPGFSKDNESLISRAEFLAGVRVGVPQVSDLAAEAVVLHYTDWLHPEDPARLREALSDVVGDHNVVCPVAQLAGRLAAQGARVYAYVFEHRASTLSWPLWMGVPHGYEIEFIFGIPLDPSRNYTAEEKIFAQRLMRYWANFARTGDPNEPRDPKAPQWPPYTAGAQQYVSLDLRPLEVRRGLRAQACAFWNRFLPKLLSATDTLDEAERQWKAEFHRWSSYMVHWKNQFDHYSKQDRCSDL

Mus musculus [21] = assay: Cognitive enhancing effect in Swiss albino mouse assessed as reversal of scopolamine-induced reduction in spontaneous alteration score at 5 mg/kg, ip qd pretreated for 1 hr followed by scopolamine addition by Y-maze test; type: functional, organism-based
Mus musculus [22] = assay: In vivo antioxidant activity in Swiss albino mouse brain assessed as increase in GSH level at 5 mg/kg, ip qd pretreated for 1 hr followed by scopolamine addition; type: functional, organism-based

## CC(C)c1ccc(NCC(O)CNc2ccc(-c3nc4ccccc4o3)cc2)cc1 (stereo unspecified)
[1]
  Activity: 39.1%
Acetylcholinesterase [2]
  IC50: 8.02 µM
Mus musculus [3]
  Activity: Active
Cholinesterase
  IC50: > 50 µM

## O=[N+]([O-])c1ccc(/C=N/c2ccc(-c3nc4ccccc4o3)cc2)cc1
[1]
  Activity: < 10%
Acetylcholinesterase [2]
  IC50: 1.79 µM
Cholinesterase
  IC50: > 50 µM

## O=[N+]([O-])c1ccc(NC(=S)Nc2ccc(-c3nc4ccccc4o3)cc2)cc1
[1]
  Activity: 45.9%
Acetylcholinesterase [2]
  IC50: 9.43 µM
Cholinesterase
  IC50: > 50 µM

## CC(C)c1ccc(/C=N/c2ccc(-c3nc4ccccc4o3)cc2)cc1
[1]
  Activity: < 10%
Acetylcholinesterase [2]
  IC50: > 50 µM
Cholinesterase
  IC50: > 50 µM

## Cc1nnc2n1-c1ccc(Cl)cc1C(c1ccccc1)=NC2 [ALPRAZOLAM]
In vitro
  Papp at 18 h: 42 nm/s
[4]
  Papp: 54 nm/s

## COc1cc2c(cc1OC)C(=O)C(CC1CCN(Cc3ccccc3)CC1)C2 (stereo unspecified) [DONEPEZIL]
[1]
  Activity: < 10%
[5]
  Time: 167.75 s
Mus musculus [6]
  Activity: Active
Mus musculus [7]
  Activity: Active

## c1ccc(CNc2ccc(-c3nc4ccccc4o3)cc2)cc1
[1]
  Activity: 24.1%
Acetylcholinesterase [2]
  IC50: 7.21 µM
Cholinesterase
  IC50: > 50 µM

## CC(C)c1ccc(CNc2ccc(-c3nc4ccccc4o3)cc2)cc1
[1]
  Activity: 27.5%
Acetylcholinesterase [2]
  IC50: > 50 µM
Cholinesterase
  IC50: > 50 µM

## CC(C)c1ccc(NC(=S)Nc2ccc(-c3nc4ccccc4o3)cc2)cc1
[1]
  Activity: 42.3%
Acetylcholinesterase [2]
  IC50: > 50 µM
Cholinesterase
  IC50: > 50 µM

## S=C(Nc1ccc(Cl)cc1)Nc1ccc(-c2nc3ccccc3o2)cc1
[1]
  Activity: 40%
Acetylcholinesterase [2]
  IC50: 12.6 µM
Cholinesterase
  IC50: > 50 µM

## O=[N+]([O-])c1ccc(CNc2ccc(-c3nc4ccccc4o3)cc2)cc1
[1]
  Activity: 22.7%
Acetylcholinesterase [2]
  IC50: 24.2 µM
Cholinesterase
  IC50: > 50 µM

## OC(CNc1ccccc1)CNc1ccc(-c2nc3ccccc3o2)cc1 (stereo unspecified)
[1]
  Activity: 48.2%
[8]
  Ratio IC50: 4.2
Acetylcholinesterase [2]
  IC50: 0.842 µM
Cholinesterase
  IC50: 3.54 µM

## Oc1ccc(CNc2ccc(-c3nc4ccccc4o3)cc2)cc1
[1]
  Activity: 39.4%
[8]
  Ratio IC50: 6.5
Acetylcholinesterase [2]
  IC50: 0.723 µM
Cholinesterase
  IC50: 4.71 µM

## C(=N\c1ccc(-c2nc3ccccc3o2)cc1)/c1ccccc1
[1]
  Activity: < 10%
Acetylcholinesterase [2]
  IC50: > 50 µM
Cholinesterase
  IC50: > 50 µM

## O=c1cc(-c2ccccc2)c2ccc(NCCCSc3nc4ccccc4o3)cc2o1
Acetylcholinesterase [2]
  IC50: 13 µM

## Brc1ccc(CNc2ccc(-c3nc4ccccc4o3)cc2)cc1
[1]
  Activity: 18.5%
Acetylcholinesterase [2]
  IC50: 8.44 µM
Cholinesterase
  IC50: > 50 µM

## O=c1ccc2ccc(OCCCCCSc3nc4ccccc4o3)cc2o1
Acetylcholinesterase [2]
  IC50: 25.4 µM

## OC(CNc1ccc(Cl)cc1)CNc1ccc(-c2nc3ccccc3o2)cc1 (stereo unspecified)
Mus musculus [9]
  Activity: Active
[1]
  Activity: 49.6%
[5]
  Time: 298.75 s
[10]
  Activity: Non-Toxic
In vitro
  Papp at 18 h: 45.5 nm/s
Mus musculus [11]
  Activity: Active
Acetylcholinesterase [12]
  Ki: 0.19 µM
Mus musculus [13]
  Activity: Active
Mus musculus [14]
  Activity: Active
[8]
  Ratio IC50: 6.3
Acetylcholinesterase [2]
  IC50: 0.363 µM
[15]
  Activity: Non-Toxic
Mus musculus [16]
  Activity: Active
Mus musculus [7]
  Activity: inactive
[17]
  Activity: Non-Toxic
Mus musculus [18]
  Activity: Active
Mus musculus [19]
  inhibition: Active
[20]
  inhibition: 11.2%
Mus musculus [21]
  Activity: Active
Cholinesterase
  IC50: 2.29 µM
Mus musculus [22]
  Activity: Active

## S=C(Nc1ccc(Br)cc1)Nc1ccc(-c2nc3ccccc3o2)cc1
[1]
  Activity: 43.1%
Acetylcholinesterase [2]
  IC50: 8.72 µM
Cholinesterase
  IC50: > 50 µM

## O=[N+]([O-])c1ccc(NCC(O)CNc2ccc(-c3nc4ccccc4o3)cc2)cc1 (stereo unspecified)
[1]
  Activity: 44.4%
Acetylcholinesterase [2]
  IC50: 1.15 µM
Cholinesterase
  IC50: > 50 µM

## Clc1ccc(/C=N/c2ccc(-c3nc4ccccc4o3)cc2)cc1
[1]
  Activity: < 10%
Acetylcholinesterase [2]
  IC50: 2.27 µM
Cholinesterase
  IC50: > 50 µM

## Oc1ccc(NCC(O)CNc2ccc(-c3nc4ccccc4o3)cc2)cc1 (stereo unspecified)
[1]
  Activity: 50%
[8]
  Ratio IC50: 3.4
Acetylcholinesterase [2]
  IC50: 0.807 µM
Cholinesterase
  IC50: 2.74 µM

## Clc1ccc(CNc2ccc(-c3nc4ccccc4o3)cc2)cc1
[1]
  Activity: 25.1%
Acetylcholinesterase [2]
  IC50: 6.3 µM
Cholinesterase
  IC50: > 50 µM

## OC(CNc1ccc(Br)cc1)CNc1ccc(-c2nc3ccccc3o2)cc1 (stereo unspecified)
[1]
  Activity: 42.4%
Acetylcholinesterase [2]
  IC50: 1.31 µM
Cholinesterase
  IC50: > 50 µM

## Oc1ccc(NC(=S)Nc2ccc(-c3nc4ccccc4o3)cc2)cc1
[1]
  Activity: 50.2%
[8]
  Ratio IC50: 31
Acetylcholinesterase [2]
  IC50: 0.882 µM
Cholinesterase
  IC50: 27.4 µM

## S=C(Nc1ccccc1)Nc1ccc(-c2nc3ccccc3o2)cc1
[1]
  Activity: 45.3%
Acetylcholinesterase [2]
  IC50: > 50 µM
Cholinesterase
  IC50: > 50 µM

## Brc1ccc(/C=N/c2ccc(-c3nc4ccccc4o3)cc2)cc1
[1]
  Activity: < 10%
Acetylcholinesterase [2]
  IC50: 37.3 µM
Cholinesterase
  IC50: > 50 µM

## Oc1ccc(/C=N/c2ccc(-c3nc4ccccc4o3)cc2)cc1
[1]
  Activity: 31.8%
[8]
  Ratio IC50: 28.7
Acetylcholinesterase [2]
  IC50: 0.94 µM
Cholinesterase
  IC50: 27 µM

## CN(C)C(=O)Oc1ccccc1-c1nc2ccccc2o1
Acetylcholinesterase [2]
  IC50: 58.2 µM

## O=C1O[C@H]([C@@H](O)CO)C(O)=C1O
[1]
  Activity: 56.6%
